# From ChEMBL document CHEMBL5046244, “Targeted Covalent Inhibition of Small CTD Phosphatase 1 to Promote the Degradation of the REST Transcription Factor in Human Cells” (J Med Chem, 2022)
# Activity calls are given as the source filed them. No cut-off for these calls is given here.
# Molecular target: T1, Carboxy-terminal domain RNA polymerase II polypeptide A small phosphatase 1 (Homo sapiens) (UniProt Q9GZU7)
# T1 sequence (whole entry): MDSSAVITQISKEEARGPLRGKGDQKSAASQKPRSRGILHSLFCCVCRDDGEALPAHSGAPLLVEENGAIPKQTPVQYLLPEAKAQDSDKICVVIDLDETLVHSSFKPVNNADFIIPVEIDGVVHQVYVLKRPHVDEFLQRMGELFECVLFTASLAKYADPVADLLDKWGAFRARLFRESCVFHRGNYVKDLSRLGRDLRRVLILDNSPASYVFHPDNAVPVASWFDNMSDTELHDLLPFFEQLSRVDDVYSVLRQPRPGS
# Assay: Binding affinity to wild type human SCP1 assessed as covalent bond formation at 50 uM incubated for 18 hrs
smiles,measurement,value
C#CCCC(=O)NCCCNC(=O)C1=Cc2ccccc2S1(=O)=O,Activity,inactive
